One experiment deals with T1, MCR-1 (Homo sapiens, UniProt Q01726).
T1 construct: expressed in transfected cells; host or cells: HEK 293
The experiment is described as follows: Melanocortin receptor binding assay, competition with 125I-HP 467, HEK 293 cells expressing hMCR-1. As to conditions: inhibition of binding of 125I-HP 467, HEK 293 cells expressing MCR-1; read-out: MC-1 IC50. Put shortly:
(§1)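 Test compounds compete on intact HEK 293 cells carrying hMCR-1 (2×10^4 per tube) or hMCR-4 (4×10^3 per tube), suspended in PBS, 10% calf serum, 1 mM CaCl2.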

A further experiment deals with T2, MCR-4 (Homo sapiens, UniProt P32245).
T2 construct: expressed in transfected cells; host or cells: HEK 293
T2 sequence (P32245 whole entry): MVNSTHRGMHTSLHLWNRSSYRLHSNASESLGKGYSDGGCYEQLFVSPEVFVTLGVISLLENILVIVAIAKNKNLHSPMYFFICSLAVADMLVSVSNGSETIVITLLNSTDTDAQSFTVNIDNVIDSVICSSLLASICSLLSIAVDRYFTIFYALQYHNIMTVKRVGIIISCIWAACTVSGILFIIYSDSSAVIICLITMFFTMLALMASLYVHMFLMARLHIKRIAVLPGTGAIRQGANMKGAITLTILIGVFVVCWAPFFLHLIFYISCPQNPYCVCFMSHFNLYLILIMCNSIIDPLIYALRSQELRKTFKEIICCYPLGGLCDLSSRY
The experiment is described as follows: Melanocortin receptor binding assay, competition with 125I-HP 467, HEK 293 cells expressing hMCR-4. Conditions: inhibition of binding of 125I-HP 467, HEK 293 cells expressing MCR-4; read-out: MC-4 IC50. Put shortly: as §1

Drawing on patent US6608082B1, “Treatment of erectile dysfunction using isoquinoline compound melanocortin receptor ligands” (Lion Bioscience AG, priority 1998, dated 2003), this text covers IC50 for 20 compounds.

Molecules are shown by their SMILES.

T1 sequence (Q01726 whole entry): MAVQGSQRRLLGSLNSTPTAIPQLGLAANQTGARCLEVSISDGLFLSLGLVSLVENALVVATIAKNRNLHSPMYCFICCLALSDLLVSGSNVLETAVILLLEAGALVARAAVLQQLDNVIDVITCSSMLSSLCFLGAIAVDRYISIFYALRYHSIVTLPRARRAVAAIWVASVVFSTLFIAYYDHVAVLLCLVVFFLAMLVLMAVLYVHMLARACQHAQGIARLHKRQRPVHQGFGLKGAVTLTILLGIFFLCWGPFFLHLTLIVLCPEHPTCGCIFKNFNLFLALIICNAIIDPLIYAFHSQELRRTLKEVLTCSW

The term IC50 denotes the concentration at which inhibition is half-maximal. For the compound `CCNc1ccc(C2C(CNCCc3ccccc3)c3ccccc3CN2CCCC(CN)NCC2CC2CNC(C)C)cc1` (stereo not shown) [TRG 2420-5], the values for the IC50 on MCR-1 and at MCR-4 were 0.043 µM and 9.88 µM, respectively.
`CCNc1ccc(C2C(CNCCc3ccccc3)c3ccccc3CN2CCCC(CN)NCC2CC2CNCc2ccccc2)cc1` (stereo not shown) [TRG 2420-6]: the results for the IC50 on MCR-1 and at MCR-4 were 0.103 µM and 5.13 µM, respectively.
In the case of `CCNc1ccc(C2C(CNCCc3ccccc3)c3ccccc3CN2CCCC(CN)NCC2CC2CN(CC)CC)cc1` (stereo not shown) [TRG 2420-7], the 50% inhibitory concentration (IC50) at MCR-1 came to 0.063 µM; on MCR-4 it was 1.81 µM.
As for `CCNc1ccc(C2C(CNCCc3ccccc3)c3ccccc3CN2CCCC(CN)NCC2CC2CNCCc2ccccc2)cc1` (stereo not shown) [TRG 2420-8], the 50% inhibitory concentration (IC50) on MCR-1 is 0.208 µM; at MCR-4 it was 2.36 µM.
The matching figures for `CCNc1ccc(C2C(CNCCc3ccccc3)c3ccccc3CN2CCCC(CN)NCCOCCNC(C)C)cc1` (stereo not shown) [TRG 2420-9]: 0.04 µM and 3.23 µM.
The matching figures for `CCNc1ccc(C2C(CNCCc3ccccc3)c3ccccc3CN2CCCC(CN)NCCOCCNCc2ccccc2)cc1` (stereo not shown) [TRG 2420-10]: 0.055 µM and 0.94 µM.
With `CCNc1ccc(C2C(CNCCc3ccccc3)c3ccccc3CN2CCC[C@@H](CN)NCCOCCN(CC)CC)cc1` (stereo partly shown) [TRG 2420-11], the results for the IC50 on MCR-1 and on MCR-4 were 0.028 µM and 4.63 µM, respectively.
The matching figures for `CCNc1ccc(C2C(CNCCc3ccccc3)c3ccccc3CN2CCCC(CN)NCCOCCNCCc2ccccc2)cc1` (stereo not shown) [TRG 2420-12]: 0.079 µM and 1.53 µM.
Taken in the same sequence, the figures for `CCNc1ccc(C2C(CNCCc3ccccc3)c3ccccc3CN2CCCC(CN)NCc2ccccc2CNC(C)C)cc1` (stereo not shown) [TRG 2420-13] were 0.065 µM and 0.67 µM.
Regarding `CCNc1ccc(C2C(CNCCc3ccccc3)c3ccccc3CN2CCCC(CN)NCc2ccccc2CNCc2ccccc2)cc1` (stereo not shown) [TRG 2420-14], the 50% inhibitory concentration (IC50) is 0.135 µM at MCR-1 and 0.29 µM on MCR-4.
The matching figures for `CCNc1ccc(C2C(CNCCc3ccccc3)c3ccccc3CN2CCCC(CN)NCc2ccccc2CN(CC)CC)cc1` (stereo not shown) [TRG 2420-15]: 0.07 µM and 1.37 µM.
The matching figures for `CCNc1ccc(C2C(CNCCc3ccccc3)c3ccccc3CN2CCCC(CN)NCc2ccccc2CNCCc2ccccc2)cc1` (stereo not shown) [TRG 2420-16]: 0.164 µM and 1.2 µM.
Taken in the same sequence, the figures for `CCNc1ccc(C2C(CN)c3ccccc3CN2CCCC(CN)NCC2CC2CNC(C)C)cc1` (stereo not shown) [TRG 2420-25] were 0.103 µM and 4.82 µM.
As to `CCNc1ccc(C2C(CN)c3ccccc3CN2CCCC(CN)NCC2CC2CNCc2ccccc2)cc1` (stereo not shown) [TRG 2420-26], the IC50 amounted to 0.093 µM at MCR-1 and 5.01 µM on MCR-4.
For the compound `CCNc1ccc(C2C(CN)c3ccccc3CN2CCCC(CN)NCC2CC2CN(CC)CC)cc1` (stereo not shown) [TRG 2420-27], the figures for the IC50 at MCR-1 and on MCR-4 were 0.04 µM and 4.19 µM, respectively.
Taken in the same sequence, the figures for `CCNc1ccc(C2C(CN)c3ccccc3CN2CCCC(CN)NCC2CC2CNCCc2ccccc2)cc1` (stereo not shown) [TRG 2420-28] were 0.203 µM and 4.08 µM.
The matching figures for `NCC(CCCCN1Cc2ccccc2C(CNCCc2ccccc2)C1c1cc(C(F)(F)F)cc(C(F)(F)F)c1)NCc1ccccc1` (stereo not shown) [TRG 2421-1]: 4.18 µM and 1.78 µM.
Taken in the same sequence, the figures for `NCC(CCCCN1Cc2ccccc2C(CNCCc2ccccc2)C1c1cc(C(F)(F)F)cc(C(F)(F)F)c1)NCc1ccc(Br)cc1` (stereo not shown) [TRG 2421-3] were 4.91 µM and 9.64 µM.
Consider `COc1ccc(CNC(CN)CCCCN2Cc3ccccc3C(CNCCc3ccccc3)C2c2cc(C(F)(F)F)cc(C(F)(F)F)c2)cc1` (stereo not shown) [TRG 2421-4], for which the figures for the concentration for half-maximal inhibition (IC50) on MCR-1 and at MCR-4 were 2.57 µM and 2.81 µM, respectively.
The matching figures for `NCC(CCCCN1Cc2ccccc2C(CNCCc2ccccc2)C1c1cc(C(F)(F)F)cc(C(F)(F)F)c1)NCc1ccc(-c2ccccc2)cc1` (stereo not shown) [TRG 2421-5]: 11.2 µM and 9.41 µM.
